Consider two compounds from patent US20110217394A1, “Iridoid Based Formulations” (priority 2000, published 2011).

Series [1] can be described thus: Thermal stability of DAA under pasteurization conditions (HPLC). The series is classed as physicochemical. The conditions noted are these: 90° C. at pH 3.3 for one minute. As to the method: (§1) Tahitian noni fruit puree as used in this example is the mashed whole fruit, excluding seeds and pericarp. The fruits were originally collected from the Tahitian Islands. One gram of the puree was diluted with 5 mL of H2O—MeOH (1:1) and mixed thoroughly. The solution was then filtered through a nylon microfilter (0.45-μm pore size); the solution was collected into a 5 mL volumetric flask for HPLC analysis. Four batches of noni puree were analyzed in the experiments. Voucher specimens of the noni fruit puree are deposited in our lab. To test iridoid stability, a DAA solution of 0.5 mg/mL was prepared with MeOH. This solution was heated in a water-bath at 90° C. for 1 min, cooled to room temperature, and analyzed by HPLC.
Noni fruit juice is usually subjected to heat pasteurization during commercial processing. Pasteurization is usually employed in noni industry, i.e., heating up to 87.7° C. for several seconds. In this study, the stability of DAA was conducted. DAA was exposed to 90° C. at pH 3.3 for one minute to determine its thermal stability at acidic conditions.

The nature of series [2]: HPLC-PDA quantitation of iridoids (DAA, AA), with method validation, precision and stability assays. The conditions noted are these: fresh noni juice; for Amount detected, Inter-day: inter-day precision and stability assay over 3 consecutive days; for Amount detected, Day 1 / Amount detected, Day 2 / Amount detected, Day 3: intra-day precision and stability assay; for Amount detected, Day 1: n = 3, Day 1; for Amount detected, Day 2: n = 3, Day 2; for Amount detected, Day 3: n = 3, Day 3.
Description: Acetonitrile (MeCN), methanol (MeOH), and water (H2O) of HPLC grade were obtained from Sigma-Aldrich (St. Louis, Mo., USA). Formic acid of analytical grade was purchased from Spectrum Chemical Mfg. Corp. (New Brunswick, N.J., USA). The chemical standard deacetylasperulosidic acid (DAA, 1) and asperulosidic acid (AA, 2) were isolated from noni fruits in our laboratory. […] They were accurately weighed and then dissolved in an appropriate volume of MeCN to produce corresponding stock solutions. The working standard solution of 1 and 2 for the calibration curve was prepared by diluting the stock solution with MeOH in seven concentration increments ranging from 0.00174-1.74 and 0.0016-0.80 mg/mL, respectively. All stock and working solutions were maintained at […] in a refrigerator. The calibration curves of standards were plotted after linear regression of the peak areas versus concentrations.
as §1
Chromatographic separation was performed on a Waters 2690 separations module coupled with 996 PDA detectors, and equipped with an Atlantis C18 column (4.6 mm×250 mm; 5 Waters Corporation, Milford, Mass., USA). The pump was connected to two mobile phases: A; MeCN, and B; 0.1% formic acid in H2O (v/v), and eluted at a flow rate of 0.8 mL/min. The mobile phase was programmed consecutively in linear gradients as follows: 0-5 min, 0% A; and 40 min, 30% A. The PDA detector was monitored in the range of 210-400 nm (235 nm was selected for quantitative analysis). The injection volume was 10 μL for each of the sample solutions. The column temperature was maintained at 25° C. Data collection and integration were performed using Waters Millennium software revision 32.
The limits of detection (LOD) and quantitation (LOQ) were defined as the lowest concentrations of analytes in a sample that can be detected and quantified. These LOD and LOQ limits were determined on the basis of signal-to-noise ratios (S/N) of 3:1 and 10:1, respectively. The working solutions of standards 1 and 2 for LOD and LOQ were prepared by diluting them sequentially. The intra- and inter-day precision assays, as well as stability tests were performed by following the method applied to the sample analysis for 3 consecutive days. Accuracy of the method (recovery) was assessed by the recovery percentage of iridoids 1 and 2 in the spiked samples. The noni fruit puree samples were spiked with standards at 3 different concentrations (equivalent to 50%, 100% and 150% concentration of 1 and 2 in the samples). The recovery percentage was calculated using the ratio of concentration detected (actual) to those spiked (theoretical). Variation was evaluated by the relative standard deviation (RSD) of triplicate injections in the HPLC experiments.
The iridoid content, inclusive of deacetylasperulosidic acid (DAA) and asperulosidic acid (AA), was determined by HPLC, according to a previously reported method (Deng et al., 2010 b). Other significant secondary metabolites, such as scopoletin, rutin, and quercetin, were also determined by HPLC (Deng et al., 2010 a).
HPLC grade acetonitrile (MeCN), methanol (MeOH), and water (H2O) were obtained from Sigma-Aldrich (St. Louis, Mo., USA). Analytical grade formic acid was purchased from Spectrum Chemical Mfg. Corp. (New Brunswick, N.J., USA). […]

In the next series the test system is mammalian cells. The note with it: cited from earlier work.
Series [3] has as its system E. coli PQ37. The class given is cell-based. The note with it: 250 ug mL^-1 iridoid plus 1.25 ug mL^-1 4NQO; blank = 1. Here is the method: The SOS-chromotest in E. coli PQ37 was used to determine the potential for iridoids in noni fruit from French Polynesia to prevent primary DNA damage. E. coli PQ37 was incubated at 37° C. in the presence of deacetylasperulosidic acid and asperulosidic acid at a concentration of 250 ug mL^−1 in a 96-well plate. Replicate samples were evaluated. […] Following incubation with the samples, 5-bromo-4-chloro-3-indolyl-β-D-galactopyranoside was added to the wells to detect β-galactosidase enzyme activity, which is induced during SOS repair of damaged DNA. The samples were again incubated for 90 minutes and the absorbances of the samples, blank and positive control were measured at 620 nm with a microplate reader. The β-galactosidase enzyme activity induction factor of each material was calculated by dividing the absorbance of the sample at 620 nm by that of the blank, while also correcting for cell viability.

Series [4] deals with E. coli PQ37. Kind of series: Primary DNA damage test (SOS-chromotest). The series is classed as cell-based. The conditions noted are these: for mean induction factor: 1000 μg mL^-1, less than two indicates absence of genotoxic activity; for induction of SOS repair: all concentrations tested, 7.81-1000 μg mL^-1. As to the method: The SOS-chromotest in E. coli PQ37 was used to determine the potential for DAA and AA to induce primary DNA damage. This test was carried out according to the previously developed method (Fish et al., 1987). […] E. coli PQ37 was incubated in LB medium in a 96-well plate at 37° C. in the presence of DAA or AA for 2 hours. The DAA and AA concentrations tested were 7.81, 15.6, 31.2, 62.5, 125, 250, 500, and 1000 μg mL^−1. Samples were evaluated in triplicate. Following incubation with the samples, 5-bromo-4-chloro-3-indolyl-β-D-galactopyranoside was added to the wells to detect β-galactosidase enzyme activity, which is induced during SOS repair of damaged DNA. Nitrophenyl phosphate is also added to the wells to measure alkaline phosphatase activity, an indicator of cell viability. The samples were again incubated and the absorbances of the samples, blanks and controls were measured at 410 and 620 nm with a microplate reader. […] The induction factor of each material was calculated by dividing the absorbance of the sample at 620 nm by that of the blank, while also correcting for cell viability. Induction factors less than two indicate an absence of genotoxic activity.

The test system of series [5] is E. coli PQ37. Briefly: Anti-genotoxicity test (SOS-chromotest with 4NQO, Example Three). The class given is cell-based. The conditions noted are these: for reduction in genotoxicity: 250 μg iridoid plus 1.25 μg mL^-1 4NQO; for induction factor of 4NQO plus iridoid compared with vehicle blank: 250 μg mL^-1 iridoid plus 1.25 μg mL^-1 4NQO. Here is the method: The primary DNA damage test was performed again, similar to the method described above. […] Induction factors were calculated in the same manner as described above.

Setting [6] is: 7.81 μg mL^−1, E. coli PQ37, 2 hours.
[7] abbreviates: 15.6 μg mL^−1, E. coli PQ37, 2 hours.
[8] abbreviates: 31.2 μg mL^−1, E. coli PQ37, 2 hours.
[9] abbreviates: 62.5 μg mL^−1, E. coli PQ37, 2 hours.
[10] abbreviates: 125 μg mL^−1, E. coli PQ37, 2 hours.
The mark [11] stands for this setting: 250 μg mL^−1, E. coli PQ37, 2 hours.
[12] abbreviates: 500 μg mL^−1, E. coli PQ37, 2 hours.
[13] abbreviates: 1000 μg mL^−1, E. coli PQ37, 2 hours.

Take `O=C(O)C1=CO[C@@H](O[C@@H]2O[C@H](CO)[C@@H](O)[C@H](O)[C@H]2O)[C@@H]2C(CO)=C[C@H](O)[C@H]12` [DAA, deacetylasperulosidic acid]: the “thermal stability (DAA content before and after heating)” value in series [1] was “no difference in the DAA contents before and after heating”. Further, the “Amount detected, Inter-day” value in series [2] turned out to be 1.297 mg/mL. The “Amount detected, Day 1” value in series [2] is 1.308 mg/mL. For the same compound, in series [2], the “Amount detected, Day 2” value came to 1.291 mg/mL. For the same compound, the “Amount detected, Day 3” value in series [2] is 1.291 mg/mL. Moreover, in the series with mammalian cells, the “genotoxicity in mammalian cells” value was “non-genotoxic”. In the series with E. coli PQ37 [3], the “β-galactosidase enzyme activity induction factor of iridoid plus 4NQO (mean±standard deviation)” value turned out to be 0.98±0.02. Besides, the Induction factor was 0.93 ± 0.13 in the series with E. coli PQ37 [4] (setting [6]); 1.03 ± 0.16 in the series with E. coli PQ37 [4] (setting [7]); 1.04 ± 0.08 in the series on E. coli PQ37 [4] (setting [8]); 1.05 ± 0.07 in the series on E. coli PQ37 [4] (setting [9]); 1.00 ± 0.08 in the series on E. coli PQ37 [4] (setting [10]); 1.06 ± 0.06 with E. coli PQ37 [4] (setting [11]). Besides, the Induction factor in the series with E. coli PQ37 [4] (setting [12]) is listed as 1.03 ± 0.02; in the series on E. coli PQ37 [4] (setting [13]), 1.07 ± 0.14. In the series with E. coli PQ37 [4], this compound yielded a mean induction factor of 1.07. Further, the “induction of SOS repair” value in the series on E. coli PQ37 [4] is on record as “did not induce any SOS repair at a frequency significantly above that of the blank”. For the same compound, the reduction in genotoxicity in the series on E. coli PQ37 [5] worked out at 98.96%. Further, the “induction factor of 4NQO plus iridoid compared with vehicle blank” value in the series on E. coli PQ37 [5] is “no statistical difference from that of the vehicle blank”.
Turning to `CC(=O)OCC1=C[C@H](O)[C@@H]2C(C(=O)O)=CO[C@@H](O[C@@H]3O[C@H](CO)[C@@H](O)[C@H](O)[C@H]3O)[C@H]12` [AA, asperulosidic acid], the “Amount detected, Inter-day” value in series [2] was determined as 0.281 mg/mL. Further, the “Amount detected, Day 1” value in series [2] came out at 0.276 mg/mL. Also, the “Amount detected, Day 2” value in series [2] is listed as 0.281 mg/mL. Besides, the “Amount detected, Day 3” value in series [2] is reported as 0.287 mg/mL. Besides, the “genotoxicity in mammalian cells” value in the series on mammalian cells is “non-genotoxic”. For the same compound, the Induction factor in the series on E. coli PQ37 [4] (setting [6]) is listed as 1.01 ± 0.05; in the series with E. coli PQ37 [4] (setting [7]), 1.04 ± 0.11; with E. coli PQ37 [4] (setting [8]), 0.99 ± 0.06; with E. coli PQ37 [4] (setting [9]) it was 1.04 ± 0.13; in the series on E. coli PQ37 [4] (setting [10]) it was 1.02 ± 0.08; in the series with E. coli PQ37 [4] (setting [11]), 1.11 ± 0.16. The results for the Induction factor in the series with E. coli PQ37 [4] (setting [12]) and in the series with E. coli PQ37 [4] (setting [13]) were 1.07 ± 0.04 and 1.09 ± 0.03, respectively. In addition, the mean induction factor with E. coli PQ37 [4] amounted to 1.09. In addition, the “induction of SOS repair” value in the series with E. coli PQ37 [4] is “did not induce any SOS repair at a frequency significantly above that of the blank”. Further, the reduction in genotoxicity in the series with E. coli PQ37 [5] was 99.22%. Moreover, the “induction factor of 4NQO plus iridoid compared with vehicle blank” value in the series with E. coli PQ37 [5] is “no statistical difference from that of the vehicle blank”.
